Read-outs that look alike come from different tables or passages of the source.
What was measured:
[1] = tested on: cyprids of A. amphitrite; experiment: whole plant or invertebrate; format: in vivo; conditions: for EC50 / IC50: Amphibalanus amphitrite; for EC50: read-out: EC50 No Metamorphosis; for IC50: read-out: IC50 Settlement; for toxic effect on cyprids: in vivo
Method: (§1) Adult A. amphitrite (Cirripedia, Balanidae) were collected from boat docks at Port Mikrolimano and Floisvos, Athens, Greece. Animals were cleaned of epibionts with a small hard brush and meticulously identified as individuals of the species. Adult barnacles were kept in separate aerated glass tanks (20 L) containing 200-μm filtered natural seawater at 27 °C and a 12:12 L:D photoperiod. Tanks were fed with 24-h hatched Artemia sp. (Branchiopoda) nauplii and Tetraselmis suecica (Chlorodendrophyceae) and Skeletonema costatum (Bacillariophyceae) algae each day and seawater was changed on alternate days. Upon stress to induce oviposition (exposure to air for 24 h or immersion in fresh water for 5 h), adults were returned to seawater for larval release. Hatched nauplii were attracted to a point light source, collected and placed into a beaker containing 2 or 3 L of 0.7 μm GF/F (GE Healthcare, Little Chalfont, UK )-filtered natural seawater at a density of approximately 1–2 nauplii/mL with gentle aeration. Nauplii were maintained at 27 °C at a 12:12 L:D photoperiod on a diet of C. gracilis (Bacillariophyceae) provided at a density of 2 × 10^5 cells/mL. Cultured in these conditions, nauplii metamorphosed to cyprids in 5 days. Aliquots of these cyprids were collected with a wide-mouthed Pasteur pipette and aged at 4 °C for 1 day prior to use in settlement assays. Only batches of cyprids that were active and had numerous oil cells, representing energy reserves, were used in settlement assays.
(§2) Assays were conducted by adding 10 cyprids into individual wells of a 24-well polystyrene sterile microplate (Orange Scientific, Braine l’Alleud, Belgium) with 2 mL of artificial sea water (ASW) (25‰) and various concentrations of the chemical compounds as listed in Table 1. These experiments were repeated at least three times with four replicates for each concentration of any given compound (n = 120 cyprids/compound). Stock solutions for all compounds were prepared in methanol (Scharlab, Barcelona, Spain) and serial dilutions were prepared in 0.7 μm (GF/F, GE Healthcare, Little Chalfont, UK), filtered sea water to have a final concentration of 2.5% methanol in each assay solution. Plates were covered and sealed with Parafilm® to avoid evaporation and incubated at 25 °C away from any light source and examined after 24, 48 and 72 h. Each animal was inspected under a stereomicroscope and its condition was recorded. […] Both permanently attached and metamorphosed individuals were counted as settled or juveniles. The remainder were counted as ‘no metamorphosis’, i.e. animals that responded to light touch and were still cyprids at the end of the experiments with no overt signs of metamorphosis.
(§3) For EC50 or IC50 (the concentration that results in 50% stimulation or inhibition relative to the control) calculations in GraphPad Prism v.6, all data were fitted to the curve according to the following models for normalized response: Y = 100/(1 + 10^((X − LogIC50))) or Y = 100/(1 + 10^((LogEC50 − X))) depending on the trend of the curve.

[2] = in vivo; format: in vivo; conditions: Amphibalanus amphitrite, in vivo, read-out: LC50 Mortality; for LC50 at 24 h: 24 h exposure; for LC50 at 48 h: 48 h exposure; for LC50 at 72 h: 72 h exposure
Method: as §1, §2, §3

Compound: C=C1CC[C@@](C)(c2ccc(C)cc2)[C@H]1C [Compound 1, laurene]
- EC50 ([1]; 24 h): 38 µM
- IC50 ([1]; 24 h): 27.9 µM
- IC50 ([1]; 48 h): 14.6 µM
- IC50 ([1]; 72 h): 16.2 µM
- LC50 at 24 h [2]: 26 µM
- LC50 at 48 h [2]: 230 µM
- LC50 at 72 h [2]: 29.5 µM

Compound: C=C1CC[C@@](C)(c2ccc(C)cc2OC(C)=O)[C@H]1C [Compound 2, debromoallolaurinterol acetate]
- EC50 ([1]; 24 h): 44 µM
- IC50 ([1]; 24 h): 2.02 µM
- EC50 ([1]; 48 h): 38.2 µM
- IC50 ([1]; 48 h): 18.1 µM
- EC50 ([1]; 72 h): 36.5 µM
- IC50 ([1]; 72 h): 19.8 µM
- LC50 at 24 h [2]: > 1000 µM
- LC50 at 48 h [2]: 790 µM
- LC50 at 72 h [2]: 191 µM

Compound: C=C1CC[C@@](C)(c2cc(Br)c(C)cc2OC(C)=O)[C@H]1C [Compound 3, allolaurinterol acetate]
- IC50 ([1]; 24 h): 1.04 µM
- EC50 ([1]; 48 h): 80.9 µM
- IC50 ([1]; 48 h): 1.8 µM
- EC50 ([1]; 72 h): 109 µM
- IC50 ([1]; 72 h): 2 µM
- LC50 at 24 h [2]: 66.1 µM
- LC50 at 48 h [2]: 382 µM
- LC50 at 72 h [2]: 269 µM

Compound: Cc1cc2c(cc1Br)C1(C)CCC(C)(O2)C1C (stereo not drawn) [Compound 5, filiformin]
- EC50 ([1]; 24 h): 27 µM
- IC50 ([1]; 24 h): 2.26 µM
- EC50 ([1]; 48 h): 0.001 µM
- IC50 ([1]; 48 h): 5.45 µM
- EC50 ([1]; 72 h): 0.287 µM
- IC50 ([1]; 72 h): 12.9 µM
- LC50 at 24 h [2]: 33.1 µM

Compound: Cc1cc(O)c(C2(C)CCC3CC32C)cc1Br (stereo not drawn) [Compound 6, laurinterol]
- EC50 ([1]; 24 h): 28.3 µM
- IC50 ([1]; 24 h): 2.42 µM
- EC50 ([1]; 48 h): 10.8 µM
- IC50 ([1]; 48 h): 2.22 µM
- EC50 ([1]; 72 h): 15 µM
- IC50 ([1]; 72 h): 1.27 µM
- toxic effect on cyprids [1]: obvious toxic effect on cyprids
- LC50 at 24 h [2]: 12.3 µM
- LC50 at 48 h [2]: 5.29 µM
- LC50 at 72 h [2]: 2.31 µM

Compound: CC(C)[C@H]1CC(C)(C)[C@@H](O)C2=C1CC[C@H]2C [Compound 7, epibrasilenol]
- EC50 ([1]; 24 h): 25.4 µM
- IC50 ([1]; 24 h): 17.5 µM
- EC50 ([1]; 48 h): 21.7 µM
- IC50 ([1]; 48 h): 17.7 µM
- EC50 ([1]; 72 h): 53.2 µM
- IC50 ([1]; 72 h): 10.3 µM
- LC50 at 24 h [2]: 24.8 µM
- LC50 at 48 h [2]: 23.4 µM
- LC50 at 72 h [2]: 25 µM

Compound: CC(C)C1=C2CCC(C)C2CC(C)(C)C1O (stereo not drawn) [Compound 8, 4-hydroxy-5-brasilene]
- EC50 ([1]; 24 h): 6.81 µM
- IC50 ([1]; 24 h): 15.8 µM
- EC50 ([1]; 48 h): 5.01 µM
- IC50 ([1]; 48 h): 17.5 µM
- EC50 ([1]; 72 h): 5.42 µM
- IC50 ([1]; 72 h): 6.95 µM
- toxic effect on cyprids [1]: obvious toxic effect on cyprids
- LC50 at 24 h [2]: 7.76 µM
- LC50 at 48 h [2]: 7.38 µM
- LC50 at 72 h [2]: 5.93 µM

Compound: CC1=CC[C@@]2(C)C(=C(C)C(=O)[C@@H](O)[C@@H]2C)CC1 [Compound 10, perforenone A]
- EC50 ([1]; 24 h): 39.3 µM
- IC50 ([1]; 24 h): 5.24 µM
- EC50 ([1]; 48 h): 71 µM
- IC50 ([1]; 48 h): 0.662 µM
- EC50 ([1]; 72 h): 57.2 µM
- IC50 ([1]; 72 h): 4.66 µM
- LC50 at 24 h [2]: 28.8 µM
- LC50 at 48 h [2]: 28.5 µM
- LC50 at 72 h [2]: 28.8 µM

Reference: PMC6891695, “Evaluation of Antifouling Potential and Ecotoxicity of Secondary Metabolites Derived from Red Algae of the Genus Laurencia” (Marine Drugs, 2019)
